Assays:
[1] = molecular target: T1, Thermoplasma acidophilum MDP decarboxylase, SEQ ID NO: 2 (Thermoplasma acidophilum, UniProt Q9HIN1); assay: Phosphotransferase activity (ADP release from 3-hydroxyisovalerate and ATP), pyruvate kinase/lactate dehydrogenase coupled assay; format: biochemical; settings: 40° C., pH 7.0, 5 mM ATP, 0-50 mM HIV
T1 construct: Th; His6 (inserted after the initiator methionine) (N); made in house; host or cells: Escherichia coli BL21(DE3)
T1 sequence (Q9HIN1 1-318): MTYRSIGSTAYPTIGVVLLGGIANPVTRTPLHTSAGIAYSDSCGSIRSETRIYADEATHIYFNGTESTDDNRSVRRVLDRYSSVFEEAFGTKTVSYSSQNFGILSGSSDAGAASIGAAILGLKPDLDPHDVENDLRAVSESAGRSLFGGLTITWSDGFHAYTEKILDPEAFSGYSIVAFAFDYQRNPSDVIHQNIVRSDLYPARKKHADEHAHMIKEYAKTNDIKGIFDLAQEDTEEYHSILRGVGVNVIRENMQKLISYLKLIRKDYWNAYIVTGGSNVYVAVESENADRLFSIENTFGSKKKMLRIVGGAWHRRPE
Experimental: (§1) The release of ADP that is associated with IBN production from HIV was quantified using the pyruvate kinase/lactate dehydrogenase coupled assay (FIG. 10). The MDP decarboxylases from P. torridus (SEQ ID NO:1), Th. Acidophilum (SEQ ID NO:2), S. infantarius (SEQ ID NO:7), S. mitis (SEQ ID NO:10) were evaluated for their ability to phosphorylate HIV, releasing ADP.
(§2) The studied enzymatic reaction was carried out under the following conditions at 40° C.:
(§3) 0.5 mM Phosphoenolpyruvate
(§4) 3 U/ml Lactate dehydrogenase
(§5) 0-50 mM 3-Hydroxyisovalerate (HIV)
(§6) The pH was adjusted to 7.0.
(§7) Each assay was started by addition of particular enzyme (at a concentration from 0.05 to 1 mg/ml) and the disappearance of NADH was monitored by following the absorbance at 340 nm.
(§8) Assays with MDP decarboxylases from the P. torridus phylum as well from the Streptococcus genus gave rise to a reproducible increase in ADP production in the presence of HIV.

[2] = molecular target: T2, Picrophilus torridus MDP decarboxylase, SEQ ID NO: 1 (Picrophilus torridus, UniProt Q6KZB1); assay: as above; format: biochemical; settings: 40° C., pH 7.0, 5 mM ATP, 0-50 mM HIV
T2 construct: His6 (inserted after the initiator methionine) (N); made in house; host or cells: Escherichia coli BL21(DE3)
T2 sequence (Q6KZB1 1-324): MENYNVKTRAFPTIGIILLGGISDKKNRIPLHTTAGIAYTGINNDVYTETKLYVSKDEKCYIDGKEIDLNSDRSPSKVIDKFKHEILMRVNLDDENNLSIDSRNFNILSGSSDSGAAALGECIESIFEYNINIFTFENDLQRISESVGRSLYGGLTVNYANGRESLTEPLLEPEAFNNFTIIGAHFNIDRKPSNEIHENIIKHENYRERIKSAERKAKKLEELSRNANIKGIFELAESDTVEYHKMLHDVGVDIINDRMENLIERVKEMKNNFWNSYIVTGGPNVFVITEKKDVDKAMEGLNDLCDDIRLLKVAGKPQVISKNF
Description: FIG. 12: Isobutene production from 3-hydroxyisovalerate in the following assays: • Without enzyme • In the presence of S. mitis MDP decarboxylase (SEQ ID NO:10) • In the presence of Th. acidophilum MDP decarboxylase (SEQ ID NO:2) • In the presence of both Th. acidophilum (SEQ ID NO:2) and S. mitis (SEQ ID NO:10) enzymes.
as §1, §2, §3, §4, §5, §6, §7, §8

[3] = molecular target: T3, Streptococcus mitis MDP decarboxylase, SEQ ID NO: 10 (Streptococcus mitis, UniProt A0ACG7RFV4); assay: Kinetic parameters of isobutene production from 3-phosphonoxyisovalerate (GC); format: biochemical; settings: pH 7.5, 37° C., 44 h, 40 mM ATP, 0-100 mM 3-phosphonoxyisovalerate
Experimental: The kinetic parameters of isobutene production were measured under the following conditions:
0-100 mM 3-phosphonoxyisovalerate
(§9) The pH was adjusted to 7.5
The reaction was initiated by addition of 1 mg of purified MDP decarboxylase from S. mitis (SEQ ID NO:10) to 0.5 ml of reaction mixture. The mixture was then incubated without shaking at 37° C. for 44 h in a sealed vial of 2 ml (Interchim).
(§10) One ml of the gaseous phase was collected and injected into a Varian 430-GC gas chromatograph equipped with an FID detector and a CP SilicaPlot column (Varian). Commercial isobutene was used as reference.

[4] = molecular target: T3, Streptococcus mitis MDP decarboxylase, SEQ ID NO: 10; assay: Effect of ATP on isobutene production from 3-phosphonoxyisovalerate (GC); format: biochemical; settings: 10 mM ATP vs 0 mM ATP, 25 mM PIV, pH 7.5, 37° C., 26 h
Experimental: The assays of isobutene production were carried out under the following conditions:
0 mM ATP (assay No1 and No2)
10 mM ATP (assay No3 and No4)
25 mM 3-phosphonoxyisovalerate
as §9
The reaction was initiated by addition of 2 mg of purified MDP decarboxylase from S. mitis (SEQ ID NO:10) to 0.5 ml of reaction mixture. Control reactions were run in the absence of enzyme (assays No1 and No3).
The mixture was incubated without shaking at 37° C. for 26 h in a sealed vial of 2 ml (Interchim).
as §10

[5] = substrate: CC(C)(O)CC(=O)O; assay: Phosphotransferase activity (ADP release from 3-hydroxyisovalerate and ATP), pyruvate kinase/lactate dehydrogenase coupled assay; format: biochemical, Streptococcus infantarius; settings: other: 40° C., pH 7.0, 5 mM ATP, 0-50 mM HIV
Experimental: as §1, §2, §3, §4, §5, §6, §7, §8

CC(C)(O)CC(=O)O [3-hydroxyisovalerate]
Km [1]: 4.02 mM
Km [2]: 9.17 mM

CC(C)(CC(=O)O)OP(=O)(O)O [3-phosphonoxyisovalerate]
Km [3]: > 60 mM
kcat [3]: at least 1.3×10^−3 sec^−1

Nc1ncnc2c1ncn2[C@@H]1O[C@H](COP(=O)(O)OP(=O)(O)OP(=O)(O)O)[C@@H](O)[C@H]1O [ATP]
increase of isobutene production from 3-phosphonoxyisovalerate (PIV) on addition of ATP [4]: 120 fold

B1: Streptococcus infantarius MDP decarboxylase, SEQ ID NO: 7 (Streptococcus infantarius subsp. infantarius ATCC BAA-102) (protein)
chain: MDRKIVTVKSYANIAIIKYWGKADAAKMIPATSSISLTLENMFTTTSVSFLPDSASHDEFYINGVLQDDKEHAKISAIIDQYRGQRSEYVKVETSNNMPTAAGLSSSSSGLSALVKACNELFETGLTRAELAQKAKFASGSSSRSFFGPLAAWDKDSGEVYPVQTDLKLAMIMLVLSDSKKSISSREGMKRCVETSTTFADWVKQSEQDYKDMLGYLKNNDFERVGELTERNALAMHDTNTHANPPFNYLTEESYKAMEFVKQLRSEGEKCYFTMDAGPNVKVLCLEEDLERLTKRFEENYRVIVSRTKEL
Km [5]: 13.4 mM
kcat [5]: 0.03 s⁻¹
kcat/Km [5]: 2 M⁻¹ s⁻¹

From patent US9193978B2, “Production of alkenes by combined enzymatic conversion of 3-hydroxyalkanoic acids” (Scientist of Fortune, S.A., priority 2010, dated 2015)
